Consider 18 compounds from patent publication US9499550B2 (BRISTOL-MYERS SQUIBB COMPANY, priority 2012, dated 2016).

For orientation: EC50 means the concentration giving half of the maximal effect.

In test [1] the test system is HCV genotype 1a (H77 strain) replicon in HUH-7 cells. The test can be described thus: HCV replicon luciferase reporter assay, genotype 1a. The conditions noted are these: Hepatitis C virus, Huh-7, 72 h, HCV genotype 1a replicon luciferase, 3 days incubation, read-out: LE_1a (EC50, range). The class given is cell-based. A digest of the protocol:
(§1)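 Replicon inhibition for both genotypes was measured as Renilla luciferase signal (EnduRen, 7.5 μM final, 2 h) after 3-day, 37° C exposure of replicon-bearing HUH-7 cells in 4% FCS DMEM, 0.5% DMSO. The 1b construct carries S1179I; the 1a H77 construct carries P1496L and S2204I. Twenty-point, 3-fold dilutions were fitted four-parametrically for EC50, and CC50 was taken from multiplexed Cell Titer-Blue.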

Test [2] concerns HCV genotype 1b (Con1) replicon in HUH-7 cells. The test can be described thus: HCV replicon luciferase reporter assay, genotype 1b. The conditions noted are these: Hepatitis C virus, Huh-7, 72 h, HCV genotype 1b replicon luciferase, 3 days incubation, read-out: LE_1b (EC50, range). Format: cell-based. A digest of the protocol:
as §1

Structures are written as SMILES. Read-outs that look alike come from different tables or passages of the source.

As for `C[C@@H]1CC/C=C\[C@@H]2C[C@@]2(C(=O)NS(=O)(=O)C2CC2)NC(=O)[C@@H]2C[C@@H](Oc3ncc(OC(F)F)c4c(Cl)cccc34)CN2C(=O)[C@@H](NC(=O)CC(C)(C)C(F)(F)F)[C@H](C)C1` [Compound 4031], the half-maximal effective concentration (EC50) in test [1] and in test [2] was less than 5.46 nM in each case.

Turning to `COc1ccc2c(O[C@@H]3C[C@H]4C(=O)N[C@]5(C(=O)NS(=O)(=O)C6CC6)C[C@H]5/C=C\CC[C@@H](C)C[C@@H](C)[C@H](NC(=O)OC(C)(C)C)C(=O)N4C3)ncnc2c1` [Compound 4032, tert-butyl (2R,6S,7R,9R,13aS,14aR,16aS,Z)-14a-(cyclopropylsulfonylcarbamoyl)-2-(7-methoxyquinazolin-4-yloxy)-7,9-dimethyl-5,16-dioxo-1,2,3,5,6,7,8,9,10,11,13a,14,14a,15,16,16a-hexadecahydrocyclopropa[e]pyrrolo[1,2-a][1,4]diazacyclopentadecin-6-ylcarbamate], the EC50 in test [1] and in test [2] was less than 5.46 nM in each case.

For `COc1ccc2c(O[C@@H]3C[C@H]4C(=O)N[C@]5(C(=O)NS(=O)(=O)C6CC6)C[C@H]5/C=C\CC[C@H](C)C[C@@H](C)[C@H](NC(=O)OC(C)(C)C)C(=O)N4C3)ncnc2c1` [Compound 4033, tert-butyl (2R,6S,7R,9S,13aS,14aR,16aS,Z)-14a-(cyclopropylsulfonylcarbamoyl)-2-(7-methoxyquinazolin-4-yloxy)-7,9-dimethyl-5,16-dioxo-1,2,3,5,6,7,8,9,10,11,13a,14,14a,15,16,16a-hexadecahydrocyclopropa[e]pyrrolo[1,2-a][1,4]diazacyclopentadecin-6-ylcarbamate], the EC50 in test [1] and in test [2] was less than 5.46 nM in each case.

For the compound `COc1ccc2c(O[C@@H]3C[C@H]4C(=O)N[C@]5(C(=O)NS(=O)(=O)C6CC6)C[C@H]5/C=C\CC[C@@H](C)C[C@@H](C)[C@H](NC(=O)OC(C)(C)C(F)(F)F)C(=O)N4C3)ncnc2c1` [Compound 4034], the concentration for a half-maximal effect (EC50) in test [1] (GETYPE1A) and in test [2] (GETYPE1B) was less than 5.46 nM in each case.

For the compound `COc1ccc2c(O[C@@H]3C[C@H]4C(=O)N[C@]5(C(=O)NS(=O)(=O)C6(F)CC6)C[C@H]5/C=C\CC[C@@H](C)C[C@@H](C)[C@H](NC(=O)OCC5(C)CC5)C(=O)N4C3)nccc2c1` [Compound 4036], the EC50 in test [1] and in test [2] was less than 5.46 nM each time.

For the compound `COc1ccc2c(O[C@@H]3C[C@H]4C(=O)N[C@]5(C(=O)NS(=O)(=O)C6(F)CC6)C[C@H]5/C=C\CC[C@@H](C)C[C@@H](C)[C@H](NC(=O)OC5CCCCC5)C(=O)N4C3)nccc2c1` [Compound 4037], the EC50 in test [1] and in test [2] was less than 5.46 nM in each case.

`COc1ccc2c(O[C@@H]3C[C@H]4C(=O)N[C@]5(C(=O)NS(=O)(=O)C6(F)CC6)C[C@H]5/C=C\CC[C@@H](C)C[C@@H](C)[C@H](NC(=O)OC5C[C@@H]6C[C@@H]6C5)C(=O)N4C3)nccc2c1` (stereo partly drawn) [Compound 4038]: the concentration for a half-maximal effect (EC50) in test [1] and in test [2] was less than 5.46 nM throughout.

For the compound `COc1cc2ccnc(O[C@@H]3C[C@H]4C(=O)N[C@]5(C(=O)NS(=O)(=O)C6(C)CC6)C[C@H]5/C=C\CC[C@@H](C)C[C@@H](C)[C@H](NC(=O)OC(C)(C)C(F)(F)F)C(=O)N4C3)c2cc1F` [Compound 4039, 1,1-trifluoro-2-methylpropan-2-yl(2R,6S,7R,9R,13aS,14aR,16aS,Z)-2-(7-fluoro-6-methoxyisoquinolin-1-yloxy)-7,9-dimethyl-14a-(1-methylcyclopropylsulfonylcarbamoyl)-5,16-dioxo-1,2,3,5,6,7,8,9,10,11,13a,14,14a,15,16,16a-hexadecahydrocyclopropa[e]pyrrolo[1,2-a][1,4]diazacyclopentadecin-6-ylcarbamate], the EC50 in test [1] and in test [2] was less than 5.46 nM in each case.

Take `C[C@@H]1CC/C=C\[C@@H]2C[C@@]2(C(=O)NS(=O)(=O)C2CC2)NC(=O)[C@@H]2C[C@@H](Oc3nccc4ccccc34)CN2C(=O)[C@@H](NC(=O)OC(C)(C)C(F)(F)F)[C@H](C)C1` [Compound 4040]: the EC50 in test [1] (GETYPE1A) and in test [2] (GETYPE1B) was less than 5.46 nM throughout.

Regarding `CCOc1cnc(O[C@@H]2C[C@H]3C(=O)N[C@]4(C(=O)NS(=O)(=O)C5(C)CC5)C[C@H]4/C=C\CC[C@@H](C)C[C@@H](C)[C@H](NC(=O)OC(C)(C)C(F)(F)F)C(=O)N3C2)c2ccccc12` [Compound 4041], the concentration giving a half-maximal response (EC50) in test [1] (GETYPE1A) and in test [2] (GETYPE1B) was less than 5.46 nM in each case.

Regarding `COc1cc2ccnc(O[C@@H]3C[C@H]4C(=O)N[C@]5(C(=O)NS(=O)(=O)C6(F)CC6)C[C@H]5/C=C\CC[C@@H](C)C[C@@H](C)[C@H](NC(=O)OCC(C)(C)C)C(=O)N4C3)c2cc1Cl` [Compound 4042, neopentyl (2R,6S,7R,9R,13aS,14aR,16aS,Z)-2-(7-chloro-6-methoxyisoquinolin-1-yloxy)-14a-(1-fluorocyclopropylsulfonylcarbamoyl)-7,9-dimethyl-5,16-dioxo-1,2,3,5,6,7,8,9,10,11,13a,14,14a,15,16,16a-hexadecahydrocyclopropa[e]pyrrolo[1,2-a][1,4]diazacyclopentadecin-6-ylcarbamate], the EC50 in test [1] and in test [2] was less than 5.46 nM throughout.

In the case of `COc1cc2ccnc(O[C@@H]3C[C@H]4C(=O)N[C@]5(C(=O)NS(=O)(=O)C6(F)CC6)C[C@H]5/C=C\CC[C@@H](C)C[C@@H](C)[C@H](NC(=O)OC(C)(C)C(F)(F)F)C(=O)N4C3)c2cc1Cl` [Compound 4043], the EC50 in test [1] (GETYPE1A) and in test [2] (GETYPE1B) was less than 5.46 nM each time.

Take `COc1cc2ccnc(O[C@@H]3C[C@H]4C(=O)N[C@]5(C(=O)NS(=O)(=O)C6(F)CC6)C[C@H]5/C=C\CC[C@H](C)C[C@@H](C)[C@H](NC(=O)OC(C)(C)C(F)(F)F)C(=O)N4C3)c2cc1Cl` [Compound 4044]: the EC50 in test [1] (GETYPE1A) was 4.82 to 103 nM; in test [2] (GETYPE1B) it was less than 5.46 nM.

Turning to `COc1cnc(O[C@@H]2C[C@H]3C(=O)N[C@]4(C(=O)NS(=O)(=O)C5(F)CC5)C[C@H]4/C=C\CC[C@@H](C)C[C@@H](C)[C@H](NC(=O)OC(C)(C)C)C(=O)N3C2)c2cc(F)ccc12` [Compound 4045, tert-butyl (2R,6S,7R,9R,13aS,14aR,16aS,Z)-2-(7-fluoro-4-methoxyisoquinolin-1-yloxy)-14a-(1-fluorocyclopropylsulfonylcarbamoyl)-7,9-dimethyl-5,16-dioxo-1,2,3,5,6,7,8,9,10,11,13a,14,14a,15,16,16a-hexadecahydrocyclopropa[e]pyrrolo[1,2-a][1,4]diazacyclopentadecin-6-ylcarbamate], the EC50 in test [1] and in test [2] was less than 5.46 nM throughout.

As for `COc1cnc(O[C@@H]2C[C@H]3C(=O)N[C@]4(C(=O)NS(=O)(=O)C5(F)CC5)C[C@H]4/C=C\CC[C@H](C)C[C@@H](C)[C@H](NC(=O)OC(C)(C)C)C(=O)N3C2)c2cc(F)ccc12` [Compound 4046, tert-butyl (2R,6S,7R,9S,13aS,14aR,16aS,Z)-2-(7-fluoro-4-methoxyisoquinolin-1-yloxy)-14a-(1-fluorocyclopropylsulfonylcarbamoyl)-7,9-dimethyl-5,16-dioxo-1,2,3,5,6,7,8,9,10,11,13a,14,14a,15,16,16a-hexadecahydrocyclopropa[e]pyrrolo[1,2-a][1,4]diazacyclopentadecin-6-ylcarbamate], the half-maximal effective concentration (EC50) in test [1] and in test [2] was 4.82 to 103 nM throughout.

On to `COc1cnc(O[C@@H]2C[C@H]3C(=O)N[C@]4(C(=O)NS(=O)(=O)C5(F)CC5)C[C@H]4/C=C\CC[C@@H](C)C[C@@H](C)[C@H](NC(=O)OCC(C)(C)C)C(=O)N3C2)c2cc(F)ccc12` [Compound 4047, neopentyl (2R,6S,7R,9R,13aS,14aR,16aS,Z)-2-(7-fluoro-4-methoxyisoquinolin-1-yloxy)-14a-(1-fluorocyclopropylsulfonylcarbamoyl)-7,9-dimethyl-5,16-dioxo-1,2,3,5,6,7,8,9,10,11,13a,14,14a,15,16,16a-hexadecahydrocyclopropa[e]pyrrolo[1,2-a][1,4]diazacyclopentadecin-6-ylcarbamate], for which the EC50 in test [1] and in test [2] was less than 5.46 nM each time.

On to `COc1cnc(O[C@@H]2C[C@H]3C(=O)N[C@]4(C(=O)NS(=O)(=O)C5(F)CC5)C[C@H]4/C=C\CC[C@@H](C)C[C@@H](C)[C@H](NC(=O)OCC4(C)CC4)C(=O)N3C2)c2cc(F)ccc12` [Compound 4048, (1-methylcyclopropyl)methyl (2R,6S,7R,9R,13aS,14aR,16aS,Z)-2-(7-fluoro-4-methoxyisoquinolin-1-yloxy)-14a-(1-fluorocyclopropylsulfonylcarbamoyl)-7,9-dimethyl-5,16-dioxo-1,2,3,5,6,7,8,9,10,11,13a,14,14a,15,16,16a-hexadecahydrocyclopropa[e]pyrrolo[1,2-a][1,4]diazacyclopentadecin-6-ylcarbamate], for which the EC50 in test [1] and in test [2] was less than 5.46 nM each time.

Regarding `COc1cc2ccnc(O[C@@H]3C[C@H]4C(=O)N[C@]5(C(=O)NS(=O)(=O)C6(F)CC6)C[C@H]5/C=C\CC[C@@H](C)C[C@@H](C)[C@H](NC(=O)OC(C)(C)C)C(=O)N4C3)c2cc1F` [Compound 4049, tert-butyl (2R,6S,7R,9R,13aS,14aR,16aS,Z)-2-(7-fluoro-6-methoxyisoquinolin-1-yloxy)-14a-(1-fluorocyclopropylsulfonylcarbamoyl)-7,9-dimethyl-5,16-dioxo-1,2,3,5,6,7,8,9,10,11,13a,14,14a,15,16,16a-hexadecahydrocyclopropa[e]pyrrolo[1,2-a][1,4]diazacyclopentadecin-6-ylcarbamate], the EC50 in test [1] and in test [2] was less than 5.46 nM throughout.
